From US20060252048A1, “Method for testing ghrelin release” (priority 2003, published 2006)
Where no end group is shown, it is not given here. The star is where a group is joined. SO3H = O=S(=O)(O)*

System: RF-48 cells
Assay: ghrelin release from RF-48 cells measured by enzyme immunoassay
Format: cell-based, human
Settings: 1 hour incubation with test compound, supernatant measured with EIA kit, compared with control and control+vehicle (FIG. 1)
Method: These test compounds were made as 100× stock solutions by dissolving them in pure ethanol, as a vehicle. The test compounds were then diluted 1/100 in the Leibovitz L-15 medium containing 0.5% foetal bovine serum (FBS).
Since the effect caused by these test compounds on ghrelin release by a RF-48 cell line was tested, RF-48 cells were grown during incubation at 37° C. in Leibovitz's L15 medium with 2 mM L-glutamine and containing 10% (vol/vol) FBS in the absence of CO2.
After cell confluence was obtained, the cells were plated in 24-well cultures plates (1×10^5 cells/well). Several wells were subsequently exposed to one of the test compounds as prepared above. For each type and concentration of test compound tested, a series of three tests was carried out.
After 1 hour of incubation of the thus-filled wells containing both the cells and the test compound at the same conditions as those applied during growing of the RF-48 cells, a sample was taken from each well to measure ghrelin release.
Each sample was centrifuged at 3000 rpm to remove the cells from the sample and the supernatant (containing the ghrelin formed as well as the medium and the test compound) was transferred to a separate tube. The ghrelin release was measured using a commercial enzyme immunoassay kit (from Phoenix Pharmaceuticals, Belmont, Calif., USA). […]

Substance: Tyr(SO3H]27)Cholecystokinin fragment 26-33 Amide (DY(SO3H)MGWMDF-NH2; UniProt P06307 96-103, looked up) [CCK]
- ghrelin release: stimulate the release of ghrelin
